Measured values published in patent publication US20210386823A1, “THERAPEUTIC AGENT FOR CARTILAGE DISORDER” (OSAKA UNIVERSITY, priority 2018, published 2021).

Tested on: cartilage defect model mice (knee joint articular cartilage defect)
Assay: Efficacy of HMGB1 fragment peptide on articular cartilage defect in cartilage defect model mouse
Type: in vivo, C57BL/6J mice
Description: C57BL/6J mice (6-7 weeks old, male, wild type) were purchased from CLEA Japan, Inc., and then acclimated to animal facilities until they were 8 weeks old (weighing approximately 25 g at 8 weeks old). While the mice were under 1.5-2.0% (v/v) isoflurane inhalation anesthesia, shaving was performed on the lower extremity of the side to create a cartilage defect, and a longitudinal skin incision of approximately 1 cm was applied with scissors to the middle of the knee joint. An articular dissection of approximately 1 cm was performed under the microscope with a sharp blade (#11) in the parapatellar medial approach to dislocate the patella laterally. The femoral pulley was confirmed, and a 0.5×0.5×0.5 mm cartilage defect was created at the center of the pulley using a 0.5 mm diameter hand-turned drill (manufactured by MEISINGER USA, L.L.C.). Inside of the joint was washed with saline, then the articular capsule was continuously sutured with 8-0 vicryl to prevent patellar dislocation, and the skin was sutured with 5-0 nylon thread.
Cartilage defect model mice created as described above were divided into an HMGB1 peptide (1-44) administration group (n=16) and a control group (n=16). To the HMGB1 peptide (1-44) administration group, a solution of HMGB1 peptide (1-44) adjusted to a concentration of 1 μg/μL with saline as solvent was administered from the tail vein in an amount of 100 μL/mouse (4 mg/kg as the dose of peptide) immediately after the cartilage defect was created, and thereafter, the same dose was administered twice a week until 4 weeks after the cartilage defect was created (hereinafter also referred to simply as “post-operative”). To the control group, saline was administered from the tail vein in an amount of 100 μL to each mouse on the same schedule as in the HMGB1 peptide (1-44) administration group.
In both the HMGB1 peptide (1-44) administration group and the control group, four mice were sacrificed at each time point of 2, 4, 8 and 12 weeks post-operative, and the cartilage defect creation sites of knee joints were removed for microscopic observation and tissue staining. For microscopic observation, the status of cartilage tissue was evaluated by scoring the gross appearance according to the criteria shown in Table 1 below using the Wayne scoring system. In addition, sections of cartilage tissue were created for histological evaluation and subjected to safranin O staining, and the status of cartilage tissue was evaluated by calculating the Wakitani score from the tissue images according to the criteria shown in Table 2 below.

## HMGB1 peptide (1-44): Peptide consisting of amino acid residues 1-44 (SEQ ID NO: 1) of human-derived HMGB1 protein, chemically synthesized by a solid-phase method (MGKGDPKKPRGKMSSYAFFVQTCREEHKKKHPDASVNFSEFSKK)
4 mg/kg tail vein, twice a week until 4 weeks post-operative, observed at 2, 4, 8 and 12 weeks post-operative, vs control group (saline)
  Microscopic observation (gross appearance) of cartilage defect sites of knee joints: recovered to a state closer to normal than those of the control group
4 mg/kg tail vein, twice a week until 4 weeks, 2, 4, 8 and 12 weeks post-operative, FIGS. 3 and 5
  Safranin O staining of cartilage tissue sections (regeneration of defective cartilage tissue): defective cartilage tissue was fully regenerated
4 mg/kg tail vein, twice a week until 4 weeks, 2, 4, 8 and 12 weeks post-operative, vs control group, FIG. 2
  Wayne score (gross appearance): higher than the control group
4 mg/kg tail vein, twice a week until 4 weeks, 2, 4, 8 and 12 weeks post-operative, vs control group, FIGS. 4 and 6
  Wakitani score (histological evaluation): significantly lower compared to that of the control group
12 weeks post-operative, compared with cartilage of normal mice (FIG. 8, left)
  Safranin O staining response of knee joint cartilage tissues compared with normal mice: strong positive response similar to cartilage tissues of knee joints of normal mice
